Reference: patent publication US9884818B2, “Sulphamoylpyrrolamide derivatives and the use thereof as medicaments for the treatment of hepatitis B” (Janssen Sciences Ireland UC, priority 2013, dated 2018)

How the values were obtained:
HBV [1] = experiment: Anti-HBV activity, HepG2.2.15 stable transfected cell line, HBV DNA from secreted virions by realtime PCR; assay type: cell-based; settings: Hepatitis B virus, HepG2.2.15, 144 h, HepG2.2.15 cells, 6 days of treatment, HBV DNA from secreted virions; read-out: HepG2 2.15 EC50
HBV [2] = experiment: Anti-HBV activity, HepG2.117 inducibly HBV producing cell line (Tet-off), intracellular HBV DNA by realtime PCR; assay type: cell-based; settings: Hepatitis B virus, HepG2.117, 72 h, HepG2.117 cells, 3 days of treatment, intracellular HBV DNA; read-out: HepG2 117 EC50
[3] = Cytotoxicity in HepG2 cells, Resazurin viability assay; settings: human, HepG2 cells, HepG2 4 days CC50 (μM), incubated for 4 days, Resazurin assay

Structure (SMILES): Cc1c(S(=O)(=O)N[C@H](C)C(F)(F)F)c(C#N)c(C(=O)Nc2ccc(F)c(C#N)c2)n1C [Compound 316, 3-cyano-N-(3-cyano-4-fluoro-phenyl)-1,5-dimethyl-4-[[(1R)-2,2,2-trifluoro-1-methyl-ethyl]sulfamoyl]pyrrole-2-carboxamide]
- EC50 (HBV [1]): 50 nM
- EC50 (HBV [2]): 50 nM
- CC50 at 4 days [3]: > 25 µM

Structure (SMILES): Cn1cc(S(=O)(=O)NC2(C(F)(F)F)CCOC2)cc1C(=O)Nc1ccc(F)c(Cl)c1F (stereo not drawn) [Compound 266, N-(3-chloro-2,4-difluoro-phenyl)-1-methyl-4-{[3-(trifluoromethyl)-tetrahydrofuran-3-yl]sulfamoyl}-1H-pyrrole-2-carboxamide]
- EC50 (HBV [1]): 20 nM
- EC50 (HBV [2]): 30 nM
- CC50 at 4 days [3]: > 25 µM

Structure (SMILES): Cn1cc(S(=O)(=O)NC(C)(C)C)cc1C(=O)Nc1ccc(F)c(Cl)c1 [Compound 195, 4-(tert-Butylsulfamoyl)-N-(3-chloro-4-fluorophenyl)-1-methyl-1H-pyrrole-2-carboxamide]
- EC50 (HBV [1]): 40 nM
- EC50 (HBV [2]): 40 nM
- CC50 at 4 days [3]: > 25 µM

Structure (SMILES): Cn1cc(S(=O)(=O)NC2(C)COC2)c(F)c1C(=O)Nc1cccc(Br)c1 [Compound 251, N-(3-Bromophenyl)-3-fluoro-1-methyl-4-[(3-methyloxetan-3-yl)sulfamoyl]-1H-pyrrole-2-carboxamide]
- EC50 (HBV [1]): 10 nM
- EC50 (HBV [2]): 60 nM
- CC50 at 4 days [3]: > 25 µM

Structure (SMILES): Cc1c(S(=O)(=O)N[C@@H](C)C(F)(F)F)cn(C)c1C(=O)Nc1ccc(F)c(Cl)c1 [Compound 147, N-(3-Chloro-4-fluorophenyl)-1,3-dimethyl-4-{[(1S)-2,2,2-trifluoro-1-methylethyl]sulfamoyl}-1H-pyrrole-2-carboxamide]
- EC50 (HBV [1]): 80 nM
- EC50 (HBV [2]): 40 nM
- CC50 at 4 days [3]: > 25 µM

Structure (SMILES): C[C@H](NS(=O)(=O)c1cc(C(=O)Nc2cc(F)c(F)c(Cl)c2)n(C)c1)C(F)(F)F [Compound 103, N-(3-Chloro-4,5-difluorophenyl)-1-methyl-4-{[(1S)-2,2,2-trifluoro-1-methylethyl]sulfamoyl}-1H-pyrrole-2-carboxamide]
- EC50 (HBV [1]): 50 nM
- EC50 (HBV [2]): 20 nM
- CC50 at 4 days [3]: > 25 µM

Structure (SMILES): Cn1cc(S(=O)(=O)NC2(C)COC2)cc1C(=O)Nc1cccc(C#N)c1 [Compound 55, N-(3-cyanophenyl)-1-methyl-4-[(3-methyloxetan-3-yl)sulfamoyl]pyrrole-2-carboxamide]
- EC50 (HBV [1]): 210 nM
- EC50 (HBV [2]): 110 nM
- CC50 at 4 days [3]: > 25 µM

Structure (SMILES): [2H]c1cc(F)c(C)c([2H])c1NC(=O)c1cc(S(=O)(=O)NC2(C)COC2)cn1C [Compound 56, N-(2,6-dideuterio-4-fluoro-3-methyl-phenyl)-1-methyl-4-[(3-methyloxetan-3-yl)sulfamoyl]pyrrole-2-carboxamide]
- EC50 (HBV [1]): 20 nM
- EC50 (HBV [2]): < 20 nM
- CC50 at 4 days [3]: > 25 µM

Structure (SMILES): Cc1c(S(=O)(=O)N[C@H](C)C(F)(F)F)cc(C(=O)Nc2ccc(F)c(Br)c2)n1C [Compound 141, N-(3-Bromo-4-fluorophenyl)-1,5-dimethyl-4-{[(1R)-2,2,2-trifluoro-1-methylethyl]sulfamoyl}-1H-pyrrole-2-carboxamide]
- EC50 (HBV [1]): 40 nM
- EC50 (HBV [2]): 150 nM
- CC50 at 4 days [3]: > 25 µM

Structure (SMILES): Cc1cc(NC(=O)c2cc(S(=O)(=O)NC3(C)COC3)cn2C)cc(C)c1F [Compound 80, N-(4-Fluoro-3,5-dimethylphenyl)-1-methyl-4-[(3-methyloxetan-3-yl)sulfamoyl]-1H-pyrrole-2-carboxamide]
- EC50 (HBV [1]): 40 nM
- EC50 (HBV [2]): 90 nM
- CC50 at 4 days [3]: > 25 µM

Structure (SMILES): CC(CC(F)(F)F)NS(=O)(=O)c1cc(C(=O)Nc2ccc(F)c(C#N)c2)n(C)c1 (stereo not drawn) [Compound 238, N-(3-Cyano-4-fluorophenyl)-1-methyl-4-[(3,3,3-trifluoro-1-methyl-propyl)sulfamoyl]-1H-pyrrole-2-carboxamide]
- EC50 (HBV [1]): 100 nM
- EC50 (HBV [2]): 110 nM
- CC50 at 4 days [3]: > 25 µM

Structure (SMILES): Cn1cc(S(=O)(=O)NCCC(F)(F)F)cc1C(=O)Nc1cc(F)c(F)c(Cl)c1 [Compound 168, N-(3-Chloro-4,5-difluorophenyl)-1-methyl-4-[(3,3,3-trifluoropropyl)sulfamoyl]-1H-pyrrole-2-carboxamide]
- EC50 (HBV [1]): 120 nM
- EC50 (HBV [2]): 320 nM
- CC50 at 4 days [3]: > 25 µM

Structure (SMILES): Cn1cc(S(=O)(=O)NC(C)(C)C)cc1C(=O)Nc1ccc(F)c(Cl)c1F [Compound 194, 4-(tert-Butylsulfamoyl)-N-(3-chloro-2,4-difluorophenyl)-1-methyl-1H-pyrrole-2-carboxamide]
- EC50 (HBV [1]): 90 nM
- EC50 (HBV [2]): 50 nM
- CC50 at 4 days [3]: > 25 µM

Structure (SMILES): C[C@@H](NS(=O)(=O)c1cc(C(=O)Nc2ccc(F)c(Br)c2)n(C)c1)C(F)(F)F [Compound 124, N-(3-Bromo-4-fluorophenyl)-1-methyl-4-{[(1R)-2,2,2-trifluoro-1-methylethyl]sulfamoyl}-1H-pyrrole-2-carboxamide]
- EC50 (HBV [1]): 40 nM
- EC50 (HBV [2]): 40 nM
- CC50 at 4 days [3]: > 25 µM

Structure (SMILES): C[C@@H](NS(=O)(=O)c1cc(C(=O)Nc2ccc(F)c(C(F)(F)F)c2)n(C)c1)C(F)(F)F [Compound 125, N-[4-Fluoro-3-(trifluoromethyl)phenyl]-1-methyl-4-{[(1R)-2,2,2-trifluoro-1-methylethyl]sulfamoyl}-1H-pyrrole-2-carboxamide]
- EC50 (HBV [1]): 190 nM
- EC50 (HBV [2]): 80 nM
- CC50 at 4 days [3]: 16.7 µM

Structure (SMILES): Cn1cc(S(=O)(=O)NC(C)(C)C)c(F)c1C(=O)Nc1ccc(F)c(F)c1F [Compound 213, 4-(tert-Butylsulfamoyl)-3-fluoro-1-methyl-N-(2,3,4-trifluorophenyl)-1H-pyrrole-2-carboxamide]
- EC50 (HBV [1]): 210 nM
- EC50 (HBV [2]): 310 nM
- CC50 at 4 days [3]: > 25 µM

Structure (SMILES): Cn1cc(S(=O)(=O)NC2(C(F)(F)F)CCOCC2)cc1C(=O)Nc1ccc(F)c(Cl)c1F [Compound 258, N-(3-chloro-2,4-difluoro-phenyl)-1-methyl-4-[[1-(trifluoromethyl)-tetrahydropyran-4-yl]sulfamoyl]-1H-pyrrole-2-carboxamide]
- EC50 (HBV [1]): 30 nM
- EC50 (HBV [2]): 20 nM
- CC50 at 4 days [3]: > 25 µM

Structure (SMILES): C[C@H](NS(=O)(=O)c1cc(C(=O)Nc2ccc(F)c(F)c2F)n(C)c1)C(F)(F)F [Compound 154, 1-Methyl-4-{[(1S)-2,2,2-trifluoro-1-methylethyl]sulfamoyl}-N-(2,3,4-trifluorophenyl)-1H-pyrrole-2-carboxamide]
- EC50 (HBV [1]): 130 nM
- EC50 (HBV [2]): 80 nM
- CC50 at 4 days [3]: > 25 µM

Structure (SMILES): C[C@@H](NS(=O)(=O)c1cn(C)c(C(=O)Nc2ccc(F)cc2C#N)c1Cl)C(F)(F)F [Compound 273, 3-chloro-N-(2-cyano-4-fluoro-phenyl)-1-methyl-4-[[(1R)-2,2,2-trifluoro-1-methyl-ethyl]sulfamoyl]pyrrole-2-carboxamide]
- EC50 (HBV [1]): 420 nM
- EC50 (HBV [2]): 700 nM
- CC50 at 4 days [3]: > 25 µM

Structure (SMILES): Cn1cc(S(=O)(=O)NC2(C)CC(F)(F)C2)c(F)c1C(=O)Nc1ccc(F)c(C#N)c1 [Compound 187, N-(3-Cyano-4-fluorophenyl)-4-[(3,3-difluoro-1-methylcyclobutyl)sulfamoyl]-3-fluoro-1-methyl-1H-pyrrole-2-carboxamide]
- EC50 (HBV [1]): 8 nM
- EC50 (HBV [2]): 6 nM
- CC50 at 4 days [3]: > 25 µM

Structure (SMILES): Cn1cc(S(=O)(=O)NC(CF)CF)cc1C(=O)Nc1ccc(F)c(Cl)c1F [Compound 264, N-(3-chloro-2,4-difluoro-phenyl)-4-{[2-fluoro-1-(fluoromethyl)-ethyl]sulfamoyl}-1-methyl-1H-pyrrole-2-carboxamide]
- EC50 (HBV [1]): 90 nM
- EC50 (HBV [2]): 130 nM
- CC50 at 4 days [3]: > 25 µM

Structure (SMILES): Cc1c(S(=O)(=O)N[C@H](C)C(F)(F)F)c(Cl)c(C(=O)Nc2ccc(F)c(C#N)c2)n1C [Compound 282, 3-chloro-N-(3-cyano-4-fluoro-phenyl)-1,5-dimethyl-4-[[(1R)-2,2,2-trifluoro-1-methyl-ethyl]sulfamoyl]pyrrole-2-carboxamide]
- EC50 (HBV [1]): < 5 nM
- EC50 (HBV [2]): 5 nM
- CC50 at 4 days [3]: > 25 µM

Structure (SMILES): Cc1cc(NC(=O)c2cc(S(=O)(=O)N[C@H]3C[C@@H](O)C3)cn2C)ccc1F [Compound 15, N-(4-fluoro-3-methyl-phenyl)-4-[(3-hydroxycyclobutyl)sulfamoyl]-1-methyl-pyrrole-2-carboxamide]
- EC50 (HBV [1]): 160 nM
- EC50 (HBV [2]): 130 nM
- CC50 at 4 days [3]: > 25 µM

Structure (SMILES): Cn1cc(S(=O)(=O)NC2(C)COC2)c(F)c1C(=O)Nc1cc(F)c(F)c(Cl)c1 [Compound 111, N-(3-Chloro-4,5-difluorophenyl)-3-fluoro-1-methyl-4-[(3-methyloxetan-3-yl)sulfamoyl]-1H-pyrrole-2-carboxamide]
- EC50 (HBV [1]): 7 nM
- EC50 (HBV [2]): 7 nM
- CC50 at 4 days [3]: > 25 µM

Structure (SMILES): Cc1c(S(=O)(=O)N[C@H](C)C(F)(F)F)cc(C(=O)Nc2ccc(F)c(C#N)c2)n1C [Compound 140, N-(3-Cyano-4-fluorophenyl)-1,5-dimethyl-4-{[(1R)-2,2,2-trifluoro-1-methylethyl]sulfamoyl}-1H-pyrrole-2-carboxamide]
- EC50 (HBV [1]): 100 nM
- EC50 (HBV [2]): 60 nM
- CC50 at 4 days [3]: > 25 µM

Structure (SMILES): Cn1cc(S(=O)(=O)NCC(F)F)cc1C(=O)Nc1ccc(F)c(C#N)c1 [Compound 126, N-(3-Cyano-4-fluorophenyl)-4-[(2,2-difluoroethyl)sulfamoyl]-1-methyl-1H-pyrrole-2-carboxamide]
- EC50 (HBV [1]): 590 nM
- EC50 (HBV [2]): 230 nM
- CC50 at 4 days [3]: > 25 µM

Structure (SMILES): Cc1cccc(F)c1NC(=O)c1c(Cl)c(S(=O)(=O)N[C@H](C)C(F)(F)F)cn1C [Compound 275, 3-chloro-N-(2-fluoro-6-methyl-phenyl)-1-methyl-4-[[(1R)-2,2,2-trifluoro-1-methyl-ethyl]sulfamoyl]pyrrole-2-carboxamide]
- EC50 (HBV [1]): 600 nM
- EC50 (HBV [2]): 700 nM
- CC50 at 4 days [3]: > 25 µM

Structure (SMILES): C[C@@H](NS(=O)(=O)c1cc(C(=O)Nc2cccc(F)c2F)n(C)c1)C(F)(F)F [Compound 203, N-(2,3-Difluorophenyl)-1-methyl-4-{[(1R)-2,2,2-trifluoro-1-methyl-ethyl]sulfamoyl}-1H-pyrrole-2-carboxamide]
- EC50 (HBV [1]): 380 nM
- EC50 (HBV [2]): 470 nM
- CC50 at 4 days [3]: > 25 µM
